Among the data in ChEMBL document CHEMBL4190187, “Discovery of pyrazolopyrimidine derivatives as novel inhibitors of ataxia telangiectasia and rad3 related protein (ATR)” (Bioorg Med Chem Lett, 2017) are inhibition values, retold here.

As usually defined, the inhibition is the relative decrease from the control value, in per cent.

Each structure is given as a SMILES string.

For test [1], the target named is CDK18/Cyclin Y (Homo sapiens) (UniProt Q07002+Q8ND76). Kind of test: Inhibition of recombinant full-length human CDK18/Cyclin Y at 1 uM using YRRAAVPPSPSLSRHSSPHQS(p)EDEEE as substrate after 40 mins in presence of [gamma-33P]ATP by scintillation counting method. The format is protein-complex assay.
Test [2] deals with Serine/threonine-protein kinase ATR (Homo sapiens, UniProt Q13535). Briefly: Inhibition of recombinant full-length human ATR at 10 uM using GST-cMyc-p53 as substrate after 40 mins in presence of [gamma-33P]ATP by scintillation counting method.
Chain of Serine/threonine-protein kinase ATR (Q13535 whole entry, looked up): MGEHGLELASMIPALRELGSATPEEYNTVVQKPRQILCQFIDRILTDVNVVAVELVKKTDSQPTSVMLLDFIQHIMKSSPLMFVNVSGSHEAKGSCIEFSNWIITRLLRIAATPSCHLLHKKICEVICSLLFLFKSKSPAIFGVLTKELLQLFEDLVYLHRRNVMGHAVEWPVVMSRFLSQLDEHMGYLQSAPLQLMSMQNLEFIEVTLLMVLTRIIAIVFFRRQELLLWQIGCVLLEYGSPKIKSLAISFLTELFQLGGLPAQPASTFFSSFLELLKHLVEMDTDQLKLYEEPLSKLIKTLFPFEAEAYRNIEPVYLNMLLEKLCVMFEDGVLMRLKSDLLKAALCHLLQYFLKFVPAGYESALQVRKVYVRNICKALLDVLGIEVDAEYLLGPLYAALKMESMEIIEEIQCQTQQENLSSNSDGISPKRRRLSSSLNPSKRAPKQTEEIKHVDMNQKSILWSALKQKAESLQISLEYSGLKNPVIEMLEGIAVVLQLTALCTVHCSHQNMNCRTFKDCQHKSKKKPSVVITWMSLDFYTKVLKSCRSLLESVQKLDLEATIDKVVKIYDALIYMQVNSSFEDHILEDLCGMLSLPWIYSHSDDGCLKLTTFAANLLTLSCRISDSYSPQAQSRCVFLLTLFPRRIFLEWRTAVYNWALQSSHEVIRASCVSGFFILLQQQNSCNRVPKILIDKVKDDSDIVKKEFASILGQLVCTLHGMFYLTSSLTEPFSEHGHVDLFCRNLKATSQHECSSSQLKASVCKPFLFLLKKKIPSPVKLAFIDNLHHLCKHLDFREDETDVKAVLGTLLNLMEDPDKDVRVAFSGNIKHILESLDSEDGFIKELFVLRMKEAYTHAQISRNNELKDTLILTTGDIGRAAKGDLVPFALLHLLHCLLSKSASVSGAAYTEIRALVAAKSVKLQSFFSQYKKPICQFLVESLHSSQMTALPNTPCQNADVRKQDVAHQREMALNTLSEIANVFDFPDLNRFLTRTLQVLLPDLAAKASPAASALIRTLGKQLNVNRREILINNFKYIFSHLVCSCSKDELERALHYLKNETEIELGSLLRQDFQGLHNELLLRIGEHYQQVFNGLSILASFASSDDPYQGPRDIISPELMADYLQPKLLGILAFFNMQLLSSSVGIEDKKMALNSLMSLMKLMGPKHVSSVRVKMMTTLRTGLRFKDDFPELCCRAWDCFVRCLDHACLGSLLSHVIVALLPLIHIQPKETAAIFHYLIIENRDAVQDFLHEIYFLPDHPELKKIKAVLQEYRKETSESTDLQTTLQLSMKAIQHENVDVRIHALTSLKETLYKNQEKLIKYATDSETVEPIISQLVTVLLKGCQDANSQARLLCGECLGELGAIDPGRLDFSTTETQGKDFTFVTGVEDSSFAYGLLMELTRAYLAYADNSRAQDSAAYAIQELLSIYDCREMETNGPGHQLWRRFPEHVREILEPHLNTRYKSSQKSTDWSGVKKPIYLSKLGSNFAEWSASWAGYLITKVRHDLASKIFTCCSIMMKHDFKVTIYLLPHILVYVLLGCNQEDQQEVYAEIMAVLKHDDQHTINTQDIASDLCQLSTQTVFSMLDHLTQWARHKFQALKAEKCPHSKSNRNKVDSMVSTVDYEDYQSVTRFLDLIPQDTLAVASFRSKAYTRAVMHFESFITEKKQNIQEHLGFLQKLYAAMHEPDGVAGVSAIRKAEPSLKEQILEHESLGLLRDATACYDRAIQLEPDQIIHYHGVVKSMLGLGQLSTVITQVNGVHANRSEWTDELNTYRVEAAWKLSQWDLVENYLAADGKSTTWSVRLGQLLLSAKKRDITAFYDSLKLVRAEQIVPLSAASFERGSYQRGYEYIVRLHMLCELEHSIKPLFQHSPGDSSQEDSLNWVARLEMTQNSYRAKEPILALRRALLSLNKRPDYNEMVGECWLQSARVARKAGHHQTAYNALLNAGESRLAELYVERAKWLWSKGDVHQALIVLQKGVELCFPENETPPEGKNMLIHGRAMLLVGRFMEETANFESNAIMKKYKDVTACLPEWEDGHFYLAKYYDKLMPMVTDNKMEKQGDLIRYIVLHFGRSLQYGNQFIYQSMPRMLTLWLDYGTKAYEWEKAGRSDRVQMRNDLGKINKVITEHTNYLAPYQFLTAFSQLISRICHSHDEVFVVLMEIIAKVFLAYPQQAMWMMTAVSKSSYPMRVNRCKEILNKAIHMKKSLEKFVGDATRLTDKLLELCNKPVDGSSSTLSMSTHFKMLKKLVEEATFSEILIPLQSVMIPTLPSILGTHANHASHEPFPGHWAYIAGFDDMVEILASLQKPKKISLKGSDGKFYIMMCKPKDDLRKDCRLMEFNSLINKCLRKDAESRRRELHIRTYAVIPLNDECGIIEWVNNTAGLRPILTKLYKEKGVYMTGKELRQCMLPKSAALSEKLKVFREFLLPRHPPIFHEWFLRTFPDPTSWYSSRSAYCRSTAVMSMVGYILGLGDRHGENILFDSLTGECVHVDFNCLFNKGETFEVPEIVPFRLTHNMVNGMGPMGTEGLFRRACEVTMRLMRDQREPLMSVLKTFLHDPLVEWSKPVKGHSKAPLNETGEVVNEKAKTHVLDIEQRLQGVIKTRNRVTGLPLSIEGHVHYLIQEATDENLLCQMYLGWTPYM
For test [3], the target named is Serine/threonine-protein kinase PAK 5 (Homo sapiens) (UniProt Q9P286). Briefly: Inhibition of recombinant human PAK5 (425 to end residues) at 1 uM using RRRLSFAEPG as substrate after 40 mins in presence of [gamma-33P]ATP by scintillation counting method.
The subject of test [4] is Angiopoietin-1 receptor (Homo sapiens), Q02763 [R849W]. Briefly: Inhibition of recombinant activated human Tie2 R849W mutant (771 to end residues) at 1 uM using EFPIYDFLPAKKK as substrate after 40 mins in presence of [gamma-33P]ATP by scintillation counting method.
The target of test [5] is Tyrosine-protein kinase ABL2 (Mus musculus) (UniProt Q4JIM5). Kind of test: Inhibition of A562 insertion recombinant mouse ARG (27 to end residues) at 1 uM using EAIYAAPFAKKK as substrate after 40 mins in presence of [gamma-33P]ATP by scintillation counting method.
Test [6] concerns the target Protein kinase C gamma type (Homo sapiens) (UniProt P05129). Kind of test: Inhibition of recombinant full-length human PKCgamma at 1 uM using histone H1 as substrate after 40 mins in presence of [gamma-33P]ATP by scintillation counting method.
Test [7] concerns the target Serine/threonine-protein kinase MRCK beta (Homo sapiens) (UniProt Q9Y5S2). Briefly: Inhibition of recombinant human MRCKbeta (1 to 473 residues) at 1 uM using KKRNRTLTV as substrate after 40 mins in presence of [gamma-33P]ATP by scintillation counting method.
The target in test [8] is Protein kinase C eta type (Homo sapiens) (UniProt P24723). Briefly: Inhibition of recombinant human PKCeta (2 to end residues) at 1 uM using ERMRPRKRQGSVRRRV as substrate after 40 mins in presence of [gamma-33P]ATP by scintillation counting method.
Test [9] addresses eIF-2-alpha kinase GCN2 (Homo sapiens) (UniProt Q9P2K8). Briefly: Inhibition of recombinant full-length human GCN2 at 1 uM using RSRSRSRSRSRSRSR as substrate after 40 mins in presence of [gamma-33P]ATP by scintillation counting method.
Test [10] concerns the target Phosphatidylinositol 4-phosphate 3-kinase C2 domain-containing subunit alpha (Homo sapiens) (UniProt O00443). Briefly: Inhibition of recombinant human PI3KC2alpha (299 to end residues) at 1 uM phosphatidylinositol/phosphatidylserine as substrate after 40 mins in presence of [gamma-33P]ATP by scintillation counting method.
In test [11] the target is Tyrosine-protein kinase Mer (Homo sapiens) (UniProt Q12866). Kind of test: Inhibition of recombinant human MER (557 to 882 residues) at 1 uM using GGMEDIYFEFMGGKKK as substrate after 40 mins in presence of [gamma-33P]ATP by scintillation counting method.
The target of test [12] is Hepatocyte growth factor receptor (Homo sapiens) (UniProt P08581). Kind of test: Inhibition of recombinant human Met (974 to end residues) at 1 uM using KKKGQEEEYVFIE as substrate after 40 mins in presence of [gamma-33P]ATP by scintillation counting method.
Test [13] has as its target MAP kinase-activated protein kinase 3 (Homo sapiens) (UniProt Q16644). Briefly: Inhibition of recombinant human MAPKAPK3 (2 to end residues) at 1 uM using KKLNRTLSVA as substrate after 40 mins in presence of [gamma-33P]ATP by scintillation counting method.
Test [14] has as its target Dual specificity mitogen-activated protein kinase kinase 7 (Homo sapiens) (UniProt O14733). Briefly: Inhibition of recombinant human MKK7beta (2 to end residues) at 1 uM using inactive JNK171 as substrate after 40 mins in presence of [gamma-33P]ATP by scintillation counting method.
For test [15], the target named is Phosphatidylinositol 5-phosphate 4-kinase type-2 alpha (Homo sapiens) (UniProt P48426). Briefly: Inhibition of recombinant full-length human PIP4K2alpha at 1 uM using phosphatidylinositol 5-phosphate/phosphatidylserine as substrate after 40 mins in presence of [gamma-33P]ATP by scintillation counting method.
Test [16] addresses Mitogen-activated protein kinase kinase kinase 7 (Homo sapiens) (UniProt O43318). Briefly: Inhibition of recombinant human TAK1 (1 to 303 residues) at 1 uM using casein as substrate after 40 mins in presence of [gamma-33P]ATP by scintillation counting method.
The target in test [17] is Tyrosine-protein kinase FRK (Homo sapiens) (UniProt P42685). Briefly: Inhibition of recombinant human PTK5 (218 to end residues) at 1 uM using GGEEEEYFELVKKKK as substrate after 40 mins in presence of [gamma-33P]ATP by scintillation counting method.
For test [18], the target named is Tyrosine-protein kinase HCK (Homo sapiens) (UniProt P08631). Kind of test: Inhibition of recombinant human Hck (230 to 497 residues) at 1 uM using KVEKIGEGTYGVVYK (Cdc2 peptide) as substrate after 40 mins in presence of [gamma-33P]ATP by scintillation counting method.
For test [19], the target named is Myosin light chain kinase, smooth muscle (Homo sapiens) (UniProt Q15746). Kind of test: Inhibition of recombinant human MLCK (1425 to 1771 residues) at 1 uM using […] after 40 mins in presence of [gamma-33P]ATP by scintillation counting method.
The target in test [20] is Tyrosine-protein kinase Fgr (Homo sapiens) (UniProt P09769). Kind of test: Inhibition of recombinant human FGR (2 to end residues) at 1 uM using poly(Glu,Tyr) 4:1 as substrate after 40 mins in presence of [gamma-33P]ATP by scintillation counting method.
Chain of Tyrosine-protein kinase Fgr (Homo sapiens) (P09769 2-529 limits assumed): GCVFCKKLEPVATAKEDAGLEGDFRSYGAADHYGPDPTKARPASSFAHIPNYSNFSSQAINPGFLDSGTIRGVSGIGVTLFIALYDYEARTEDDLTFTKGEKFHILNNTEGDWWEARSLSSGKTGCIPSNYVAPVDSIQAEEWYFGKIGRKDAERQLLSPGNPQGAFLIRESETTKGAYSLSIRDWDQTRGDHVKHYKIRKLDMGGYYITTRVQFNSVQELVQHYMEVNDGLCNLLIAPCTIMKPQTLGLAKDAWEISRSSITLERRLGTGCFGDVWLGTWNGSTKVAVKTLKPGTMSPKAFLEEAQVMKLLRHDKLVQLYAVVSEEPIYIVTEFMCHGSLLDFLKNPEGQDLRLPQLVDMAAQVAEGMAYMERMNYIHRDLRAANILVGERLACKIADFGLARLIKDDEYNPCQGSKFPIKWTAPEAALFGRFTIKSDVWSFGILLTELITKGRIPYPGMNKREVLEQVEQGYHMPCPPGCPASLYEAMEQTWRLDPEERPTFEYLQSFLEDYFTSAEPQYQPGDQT
Test [21] has as its target Glycogen synthase kinase-3 beta (Homo sapiens) (UniProt P49841). Briefly: Inhibition of recombinant human GSK3beta (2 to end residues) at 1 uM using YRRAAVPPSPSLSRHSSPHQS(p)EDEEE (phospho GS2 peptide) as substrate after 40 mins in presence of [gamma-33P]ATP by scintillation counting method.
Test [22] has as its target Mitogen-activated protein kinase 11 (Homo sapiens) (UniProt Q15759). Briefly: Inhibition of recombinant full-length human SAPK2b at 1 uM using myelin basic protein as substrate after 40 mins in presence of [gamma-33P]ATP by scintillation counting method.
Test [23] deals with Serine/threonine-protein kinase PAK 4 (Homo sapiens) (UniProt O96013). Kind of test: Inhibition of recombinant human PAK4 (295 to end residues) at 1 uM using myelin basic protein as substrate after 40 mins in presence of [gamma-33P]ATP by scintillation counting method.

Chain of Mitogen-activated protein kinase 11 (Homo sapiens) (Q15759 whole entry): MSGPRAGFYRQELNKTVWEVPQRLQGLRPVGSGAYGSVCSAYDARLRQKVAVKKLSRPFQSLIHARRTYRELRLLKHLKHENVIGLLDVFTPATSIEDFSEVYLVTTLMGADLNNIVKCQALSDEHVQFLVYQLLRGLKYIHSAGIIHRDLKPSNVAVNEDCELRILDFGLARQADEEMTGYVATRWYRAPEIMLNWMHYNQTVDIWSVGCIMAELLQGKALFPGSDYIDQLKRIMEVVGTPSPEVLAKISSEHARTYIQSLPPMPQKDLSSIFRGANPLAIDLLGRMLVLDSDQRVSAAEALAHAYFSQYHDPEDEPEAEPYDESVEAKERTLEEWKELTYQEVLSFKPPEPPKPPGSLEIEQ
Chain of Dual specificity mitogen-activated protein kinase kinase 7 (Homo sapiens) (O14733 whole entry): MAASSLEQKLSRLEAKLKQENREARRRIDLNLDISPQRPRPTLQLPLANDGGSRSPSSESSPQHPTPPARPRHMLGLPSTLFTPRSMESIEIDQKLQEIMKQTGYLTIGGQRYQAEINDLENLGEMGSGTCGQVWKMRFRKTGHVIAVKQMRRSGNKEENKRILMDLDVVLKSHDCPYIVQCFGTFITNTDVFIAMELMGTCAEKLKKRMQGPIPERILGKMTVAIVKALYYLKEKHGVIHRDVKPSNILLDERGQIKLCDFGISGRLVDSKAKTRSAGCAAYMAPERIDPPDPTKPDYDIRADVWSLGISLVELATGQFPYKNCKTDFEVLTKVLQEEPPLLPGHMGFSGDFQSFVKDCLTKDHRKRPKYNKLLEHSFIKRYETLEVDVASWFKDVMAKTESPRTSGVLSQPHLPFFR
Chain of Angiopoietin-1 receptor (Homo sapiens), Q02763 [R849W] (Q02763 whole entry R849W): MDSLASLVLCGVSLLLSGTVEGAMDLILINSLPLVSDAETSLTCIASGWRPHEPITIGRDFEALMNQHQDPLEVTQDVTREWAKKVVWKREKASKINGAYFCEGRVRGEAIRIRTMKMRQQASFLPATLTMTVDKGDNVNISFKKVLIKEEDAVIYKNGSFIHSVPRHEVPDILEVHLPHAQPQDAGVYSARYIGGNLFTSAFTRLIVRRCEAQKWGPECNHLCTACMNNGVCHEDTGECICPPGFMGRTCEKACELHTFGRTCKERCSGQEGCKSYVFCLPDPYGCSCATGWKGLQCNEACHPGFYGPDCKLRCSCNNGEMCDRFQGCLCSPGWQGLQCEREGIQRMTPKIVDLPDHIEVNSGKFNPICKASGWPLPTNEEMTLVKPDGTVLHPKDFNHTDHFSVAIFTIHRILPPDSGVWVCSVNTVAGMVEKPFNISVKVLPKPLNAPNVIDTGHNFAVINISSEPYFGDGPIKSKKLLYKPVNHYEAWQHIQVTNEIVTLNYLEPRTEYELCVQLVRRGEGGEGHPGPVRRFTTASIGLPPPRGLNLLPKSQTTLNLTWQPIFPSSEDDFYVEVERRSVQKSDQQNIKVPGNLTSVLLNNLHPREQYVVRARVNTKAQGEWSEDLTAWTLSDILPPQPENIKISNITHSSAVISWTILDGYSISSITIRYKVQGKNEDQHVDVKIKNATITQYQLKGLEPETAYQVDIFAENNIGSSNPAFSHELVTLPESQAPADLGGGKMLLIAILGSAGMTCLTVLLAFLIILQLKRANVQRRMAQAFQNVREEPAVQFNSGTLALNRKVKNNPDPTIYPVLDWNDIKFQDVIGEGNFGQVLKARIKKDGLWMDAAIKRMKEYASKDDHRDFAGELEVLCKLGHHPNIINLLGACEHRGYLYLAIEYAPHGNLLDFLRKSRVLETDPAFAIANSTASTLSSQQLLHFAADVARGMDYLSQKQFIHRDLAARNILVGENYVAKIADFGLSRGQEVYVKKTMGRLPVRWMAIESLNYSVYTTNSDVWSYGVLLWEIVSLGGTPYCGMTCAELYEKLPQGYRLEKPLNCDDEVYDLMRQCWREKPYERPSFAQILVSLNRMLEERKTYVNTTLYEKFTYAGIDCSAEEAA

Regarding `CS(=O)(=O)c1ccc(-n2nc(-c3cnc4[nH]ccc4c3)c3c(N)ncnc32)cc1`, the inhibition in test [1] came to 0%; in [2] it was 106%; in test [3], 20%; in test [4], 1%; in test [5], 69%; in [6] it was 3%. For the same molecule, the inhibition in test [7] is -4%; in [8], 6%; in test [9], 2%; in [10], 23%; in [11] it was -3%; in [12], -4%. Also, the inhibition in test [13] was -1%; in test [14], -4%; in [15] it was -2%; in test [16], -3%; in [17], 94%; in test [18], 50%. Also, the inhibition in test [19] is 4%; in test [20] it was 69%; in test [21], 2%; in test [22], -1%; in test [23], 45%.
